Measured values as given in patent publication US9598410B2, “Substituted 4,5,6,7-tetrahydro-1H-pyrazolo[4,3-C]pyridines, their use as medicament, and pharmaceutical preparations comprising them” (SANOFI, priority 2011, dated 2017).

Biological target: Human TASK-1 channels (Homo sapiens (Human), UniProt O14649)
Experiment: Activity on the TASK-1 channel in Xenopus oocytes (two-microelectrode voltage clamp)
Type: cell-based
Conditions: percentage inhibition of TASK-1 control current
Experimental: Human TASK-1 channels were expressed in Xenopus oocytes. […] Subsequently, TASK-1-encoding RNA synthesized in vitro was injected into oocytes. […] Oocytes were continuously superfused with ND96 buffer containing: NaCl 96 mM, KCl 2 mM, CaCl2 1.8 mM, MgCl2 1 mM, HEPES 5 mM (pH adjusted to 7.4 with NaOH). All experiments were performed at room temperature.
IC50 values were obtained by fitting the data to the general dose-response equation.

Chain of Human TASK-1 channels (O14649 whole entry): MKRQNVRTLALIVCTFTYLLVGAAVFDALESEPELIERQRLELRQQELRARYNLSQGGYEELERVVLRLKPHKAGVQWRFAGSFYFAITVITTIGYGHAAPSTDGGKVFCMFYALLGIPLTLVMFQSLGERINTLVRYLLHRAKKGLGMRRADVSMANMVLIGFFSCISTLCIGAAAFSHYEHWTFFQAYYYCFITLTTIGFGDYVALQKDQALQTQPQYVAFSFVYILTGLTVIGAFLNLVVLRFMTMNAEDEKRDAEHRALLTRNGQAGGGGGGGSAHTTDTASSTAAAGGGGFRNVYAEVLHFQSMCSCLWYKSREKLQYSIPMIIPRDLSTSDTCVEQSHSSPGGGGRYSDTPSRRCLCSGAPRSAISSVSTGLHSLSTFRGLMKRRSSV

## COc1ccnc(Cn2nc(-c3cccc(C(F)(F)F)c3)c3c2CCN(C(C)=O)C3)c1 [Example 6q, 1-[1-(4-Methoxy-pyridin-2-ylmethyl)-3-(3-trifluoromethyl-phenyl)-1,4,6,7-tetrahydro-pyrazolo[4,3-c]pyridin-5-yl]-ethanone]
  Inhibition (%) at 5 μM: 70%
